# Reference: BindingDB's records for doi:10.1021/jm401798r (University of Michigan, 2014)
# Assays:
# D(2) dopamine receptor = D(2) dopamine receptor (Homo sapiens, UniProt P14416); assay: Displacement of [3H]N-methylspiperone from human dopamine D2 receptor expressed in HEK293 cells after 1 hr by liquid scintillation counting analysis
# D(3) dopamine receptor [1] = target: D(3) dopamine receptor (Homo sapiens, UniProt P35462); assay: Displacement of [3H]N-methylspiperone from human dopamine D3 receptor expressed in HEK293 cells after 1 hr by liquid scintillation counting analysis
# D(3) dopamine receptor [2] = target: D(3) dopamine receptor (Rattus norvegicus, UniProt P19020); assay: Displacement of [3H]R-(+)-7-OHDPAT from dopamine D3 receptor in Sprague-Dawley rat ventral striatum after 90 mins
# Chain of D(3) dopamine receptor (Rattus norvegicus, UniProt P19020) (P19020 whole entry): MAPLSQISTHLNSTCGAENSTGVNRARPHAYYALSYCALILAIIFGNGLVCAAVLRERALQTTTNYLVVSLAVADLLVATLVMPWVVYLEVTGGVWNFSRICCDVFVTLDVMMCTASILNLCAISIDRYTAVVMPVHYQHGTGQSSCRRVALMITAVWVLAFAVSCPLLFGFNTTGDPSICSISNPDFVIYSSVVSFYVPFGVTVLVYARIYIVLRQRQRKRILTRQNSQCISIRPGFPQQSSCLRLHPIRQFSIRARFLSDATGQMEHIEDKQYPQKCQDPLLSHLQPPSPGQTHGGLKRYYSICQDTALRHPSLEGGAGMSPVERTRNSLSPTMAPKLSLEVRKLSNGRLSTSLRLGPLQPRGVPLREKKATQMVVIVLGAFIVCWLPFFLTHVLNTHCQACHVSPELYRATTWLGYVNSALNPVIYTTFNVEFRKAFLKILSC
# Chain of D(3) dopamine receptor (Homo sapiens, UniProt P35462) (P35462 as listed by the source): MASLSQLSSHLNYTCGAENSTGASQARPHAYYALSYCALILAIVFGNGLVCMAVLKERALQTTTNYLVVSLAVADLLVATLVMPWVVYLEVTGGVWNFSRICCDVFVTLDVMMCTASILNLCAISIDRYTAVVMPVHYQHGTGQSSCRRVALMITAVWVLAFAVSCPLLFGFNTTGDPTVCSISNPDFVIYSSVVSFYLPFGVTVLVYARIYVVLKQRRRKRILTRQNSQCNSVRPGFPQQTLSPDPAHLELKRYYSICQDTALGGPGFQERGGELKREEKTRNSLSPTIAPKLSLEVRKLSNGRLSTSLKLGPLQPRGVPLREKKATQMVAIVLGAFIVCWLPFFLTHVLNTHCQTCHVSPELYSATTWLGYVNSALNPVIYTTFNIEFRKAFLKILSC
# Chain of D(2) dopamine receptor (P14416 whole entry): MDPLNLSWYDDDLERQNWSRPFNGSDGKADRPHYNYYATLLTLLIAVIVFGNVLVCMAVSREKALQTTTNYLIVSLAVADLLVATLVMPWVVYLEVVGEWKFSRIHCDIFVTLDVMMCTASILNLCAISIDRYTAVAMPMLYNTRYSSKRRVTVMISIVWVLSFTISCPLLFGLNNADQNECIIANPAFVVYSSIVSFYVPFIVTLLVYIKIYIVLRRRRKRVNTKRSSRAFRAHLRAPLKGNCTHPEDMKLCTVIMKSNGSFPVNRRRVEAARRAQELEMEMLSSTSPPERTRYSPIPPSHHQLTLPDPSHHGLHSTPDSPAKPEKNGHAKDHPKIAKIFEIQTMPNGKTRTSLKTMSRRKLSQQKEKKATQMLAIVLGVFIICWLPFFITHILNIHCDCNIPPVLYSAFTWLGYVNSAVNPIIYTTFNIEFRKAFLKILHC
SMILES,Ki (D(2) dopamine receptor),Ki (D(3) dopamine receptor [1]),Ki (D(3) dopamine receptor [2])
CCCN(CC[C@]1(O)C[C@@H](NC(=O)c2ccc3ccccc3c2)C1)[C@H]1C[C@@H]1c1ccccc1Cl,923 nM,22 nM,19 nM
CCCN(CC[C@]1(O)C[C@@H](NC(=O)c2ccc3ccccc3c2)C1)[C@H]1C[C@@H]1c1cccc(Cl)c1,1220 nM,38 nM,28 nM
CCCN(CC[C@]1(O)C[C@@H](NC(=O)c2ccc3ccccc3c2)C1)C1CC1c1ccc(Cl)cc1 (some centres undefined),667 nM,2.6 nM,4.6 nM
